Values joined by “and” are separate entries in the source; they are usually repeats but may differ in a detail not shown here. Equal entries are not always repeated.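 Cells were grown in 96-well plates and exposed to each compound for 48 hours at five concentrations; endpoints were interpolated linearly between bracketing concentrations, or set to the highest concentration if not reached. GI50 is the concentration that inhibits growth by half. TGI is the concentration that stops growth completely.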
Key:
Assay in all cases: DTP human tumour cell line panel, 48 h
[1] = system: A549 NSCLC
[2] = system: CAKI-1 renal
[3] = system: HOP-92 NSCLC
[4] = system: KM12 colon
[5] = system: MCF7 breast
[6] = system: NCI-H522 lung
[7] = system: OVCAR-5 ovarian
[8] = system: OVCAR-8 ovarian
[9] = system: TK-10 renal
[10] = system: UO-31 renal

Row | SMILES | GI50 [1] | TGI [1] | GI50 [2] | TGI [2] | GI50 [3] | TGI [3] | GI50 [4] | GI50 [5] | TGI [5] | GI50 [6] | TGI [6] | GI50 [7] | TGI [7] | GI50 [8] | TGI [8] | GI50 [9] | TGI [9] | GI50 [10] | TGI [10] | TGI [4]
1 | COc1ccc2c(c1)/C(=C\c1c(-c3ccccc3)nc3sccn13)C(=O)N2 | 7.2 µM | > 100 µM | 0.0357 µM | 0.37 µM | > 100 µM | > 100 µM | 1.55 µM | > 100 µM | > 100 µM | 27 µM | 67.3 µM | 5.13 µM | 40.4 µM | 20.9 µM | > 72.2 µM | > 23.4 µM | > 72.9 µM | 7.29 µM | > 43.7 µM | –
2 | C[C@]1(c2nc3c(C(N)=O)cccc3[nH]2)CCCN1 | > 65.8 µM and 74.9 µM | > 100 µM | 59 µM and 74.9 µM | > 100 µM | > 67.9 µM | > 100 µM | 61.9 µM and > 86.2 µM | 34.2 µM and > 71.3 µM | > 100 µM | > 63 µM and 97.6 µM | > 100 µM | 23.5 µM and > 75 µM | > 100 µM | 69.5 µM and 99.8 µM | > 100 µM | > 100 µM | > 100 µM | > 92.8 µM | > 100 µM | > 100 µM
3 | COc1nc2c(c(=O)n1C)CN(c1ccccc1)C(=O)CN2C | > 100 µM | > 100 µM | 20.1 µM | > 100 µM | 0.852 µM | 55.1 µM | 27.3 µM | 6.25 µM | > 100 µM | 96.7 µM | > 100 µM | > 100 µM | > 100 µM | 74.5 µM | > 100 µM | 51.1 µM | > 100 µM | 5.73 µM | > 100 µM | > 100 µM
4 | O=C(O)c1nn(-c2ccc(Cl)cc2)c2c1C(=O)c1ccccc1C2=O | – | > 100 µM | – | > 100 µM | – | > 100 µM | – | – | > 100 µM | – | > 100 µM | – | > 100 µM | – | > 100 µM | – | > 100 µM | – | > 100 µM | > 100 µM
5 | CC[C@H](C)[C@H](NC(=O)c1ncccn1)C(=O)N(C)[C@H](C[C@@H](OC(C)=O)c1nc(C(=O)N[C@@H](Cc2ccccc2)C[C@H](C)C(=O)OC)cs1)C(C)C | 6.23 µM | > 25 µM | – | – | 4.36 µM | > 25 µM | 1.04 µM | 0.924 µM | > 25 µM | 1.01 µM | 7.37 µM | 5.07 µM | > 25 µM | 2.25 µM | > 25 µM | 16.6 µM | > 25 µM | 6.01 µM | > 25 µM | > 25 µM
6 | Cn1cc(-c2ncnc3ccc(-c4cnc(Cl)c(NS(C)(=O)=O)c4)cc23)c2ccccc21 | 0.814 µM | 9.41 µM | 0.415 µM | 27 µM | 0.0408 µM | 0.634 µM | 1.46 µM | 0.205 µM | > 100 µM | 1.42 µM | > 100 µM | 0.382 µM | > 100 µM | 1.72 µM | > 100 µM | 0.505 µM | 10.6 µM | 0.164 µM | 5 µM | 19.2 µM
7 | Cc1cc(C)c([I+]c2c(C)cc(C)cc2C)c(C)c1 | 0.958 µM | 2.47 µM | 1.43 µM | 4.15 µM | 0.267 µM | 1.53 µM | – | 0.325 µM | 1.46 µM | 0.351 µM | 1.45 µM | 0.781 µM | 2.09 µM | 0.286 µM | 1.09 µM | 0.712 µM | 2.06 µM | 1.57 µM | 3.7 µM | –
8 | CC1(C)CC[C@]2(C(=O)NCCNCCN)CC[C@]3(C)C(=CC[C@@H]4[C@@]5(C)CCC(=O)C(C)(C)[C@@H]5CC[C@]43C)[C@@H]2C1 | – | – | 1.82 µM | 4.47 µM | 1.47 µM | 4.4 µM | 1.85 µM | 1.55 µM | 3.08 µM | 1.78 µM | 3.91 µM | 1.98 µM | 4.56 µM | 2.15 µM | 4.9 µM | 1.91 µM | 4.1 µM | 1.65 µM | 3.06 µM | 3.4 µM
9 | Cc1cccc2c(=O)c3c(sc12)c(NCCCN)nc1ccccc13 | 0.88 µM | 2.45 µM | 1.18 µM | 2.47 µM | 1.53 µM | 5.12 µM | 1.65 µM | 1.11 µM | 2.57 µM | 1.57 µM | 3.34 µM | 1.56 µM | 3.03 µM | – | – | – | – | 1.06 µM | 2.29 µM | 3.21 µM
10 | COc1ccc2cc(C(=O)N3CCC([C@@H](C)C(=O)NCc4ccc5c(c4)OCO5)CC3)[nH]c2c1 | > 100 µM | > 100 µM | – | – | 23.4 µM | > 100 µM | > 100 µM | > 100 µM | > 100 µM | > 100 µM | > 100 µM | > 100 µM | > 100 µM | 48.4 µM | > 100 µM | > 100 µM | > 100 µM | > 100 µM | > 100 µM | > 100 µM
